Experimental data from patent US20060063913A1, “SSX-2 peptide analogs” (priority 2004, published 2006).
Values belong to the molecule of their own block, whether it stands above or below them. Where a SMILES comes first, the peptide text is derived from it. Where no end group is shown, it is not given here. [ ]: non-standard residue; d: D form. Orn = NCCC[C@H](N)C(=O)O; Nva = CCC[C@H](N)C(=O)O

Key:
HLA-A*0201 = HLA-A*0201 (Homo sapiens, UniProt P04439, D140Y/D185E/D98H/E176V/E277Q/G131W/G231S/I119V/I121R/I166T/I218V/L300P/L318F/N151K/N90K/P208A/P217A/Q86G/Q94H/R138H/R169H/T345S); experiment: ED50 (M)
[1] = tested on: T cell lines specific for the native epitope (PRAME425-433); experiment: Cross-reactivity of PRAME 425-433 analogs: IFN-gamma secretion from T cell lines specific for the native epitope; assay type: cell-based, HHD transgenic mice; settings: analog peptide at approximately 0.3 μM
Experimental: The analogs listed in FIGS. 26-28 were tested for various properties such as improved affinity and stability of binding, cross-reactivity with the native epitope, and immunogenicity as follows in Examples 40-48. […] The observed affinities of the analogs are reported as % binding (compared to the positive control) and ED50s. Stability of binding as half time of dissociation. Cross reactivity with the native epitope was assessed by using the analog peptides to stimulate IFG-gamma secretion from a T cell lines specific for the native epitope, essentially as described in Example 6. The data shown in FIGS. 26-28 were generated by stimulating with analog peptide at approximately 0.3 μM. […] In some cases the reported values are the average of two determinations.

[2] = tested on: T cells specific for the wild-type NY-ESO-1157-165 epitope; experiment: Cross-reactivity and functional avidity of NY-ESO-1 157-165 analogs (IFN-gamma, T cells specific for the wild-type epitope); assay type: cell-based, HHD transgenic mice; settings: IFN-gamma production ex vivo
HLA-A*0201 on T2 cells = target: T1, HLA-A*0201 on T2 cells (human); experiment: T2 cell binding assay (flow cytometry)
T1 construct: Class I MHC stabilised on T2 cells by added peptide, detected with a fluorescent anti-A2 antibody; also called HLA-A2; MHC class I (A2 allele)

- EC50 (HLA-A*0201): 1450 nM
Molecule: TLLQHLIGL [11 | Prame 425-433 (S425T)]

Molecule: CCC[C@H](NC(=O)CNC(=O)[C@@H](NC(=O)[C@H](CC(C)C)NC(=O)[C@H](Cc1c[nH]cn1)NC(=O)[C@H](CCC(N)=O)NC(=O)[C@H](CC(C)C)NC(=O)[C@H](CC(C)C)NC(=O)[C@@H](N)CO)[C@@H](C)CC)C(=O)O [18 | Prame 425-433 (L433(Nva))] (H-SLLQHLIG[Nva]-OH; N-terminus and C-terminus assumed)
- EC50 (HLA-A*0201): 1660 nM

Molecule: Lys P1 analog: PRAME 425-433 analog with Lys for the Ser at the P1 position (KLLQHLIGL; UniProt P78395 425-433, looked up, variant S425K)
- IFN-γ elicited, as percent of the native peptide [1]: 40%

Molecule: FLLQHLIGL [9 | Prame 425-433 (S425F)]
- EC50 (HLA-A*0201): 434 nM

Molecule: YLLQHLIGL [10 | Prame 425-433 (S425Y)]
- EC50 (HLA-A*0201): 550 nM

Molecule: CCC[C@H](NC(=O)[C@@H](N)CO)C(=O)N[C@@H](CC(C)C)C(=O)N[C@@H](CCC(N)=O)C(=O)N[C@@H](Cc1c[nH]cn1)C(=O)N[C@@H](CC(C)C)C(=O)N[C@H](C(=O)NCC(=O)N[C@@H](CC(C)C)C(=O)O)[C@@H](C)CC [6 | Prame 425-433 (L426(Nva)), S(Nva)LQHLIGL] (H-S[Nva]LQHLIGL-OH; N-terminus and C-terminus assumed)
- EC50 (HLA-A*0201): 1910 nM

Molecule: CC[C@H](C)[C@H](NC(=O)[C@H](CC(C)C)NC(=O)[C@H](Cc1c[nH]cn1)NC(=O)[C@H](CCC(N)=O)NC(=O)[C@H](CC(C)C)NC(=O)[C@H](CC(C)C)NC(=O)[C@@H](N)CCCN)C(=O)NCC(=O)N[C@@H](CC(C)C)C(=O)O [12 | Prame 425-433 (S425(Orn))] (H-[Orn]LLQHLIGL-OH; N-terminus and C-terminus assumed)
- EC50 (HLA-A*0201): 2250 nM

- EC50 (HLA-A*0201): 988 nM
Molecule: SMLQHLIGL [3 | Prame 425-433 (L426M)]

Molecule: NY-ESO-1157-166: 10-mer of the wild-type NY-ESO-1 sequence, residues 157-166 (SLLMWITQCF; UniProt P78358 157-166, looked up, fragment)
- Activity in the cross-reactivity/functional avidity assay relative to wild-type NY-ESO-1 157-165, in words [2]: showed no immunological activity

- binding result (HLA-A*0201 on T2 cells): no binding
B1: SSX-2 41-49-NH2 (A42V) (peptide)
peptide: KVSEKIFYX
modifications: C-terminal amide
